Measured values published in US12286435B2, “Compound having benzo seven-membered ring structure, preparation method therefor, and use thereof” (BIONNA (BEIJING) MEDICAL TECHNOLOGY CO., LTD., priority 2019, dated 2025).

Tests used:
[1] = molecular target: BRD4 BD1 protein (Homo sapiens (Human), UniProt O60885); assay: Fluorescence polarization binding affinity (Ki) with BRD4 BD1 protein; settings: fluorescence polarization; Ki calculated from IC50
[2] = molecular target: BRD4 BD2 protein (Homo sapiens (Human), UniProt O60885); assay: Fluorescence polarization binding affinity (Ki) with BRD4 BD2 protein; settings: fluorescence polarization; Ki calculated from IC50

Compound | Ki [1] [nM] | Ki [2] [nM]
CCC(C)N1CC=C(c2ccc3c(c2)C(Nc2cccc(Cl)c2)CCn2nnc(C)c2-3)CC1 (stereo not shown) [BH87, 9-(1-(sec-butyl)-1,2,3,6-tetrahydropyridin-4-yl)-N-(3-chlorophenyl)-1-methyl-6,7-dihydro-5H-benzo[c][1,2,3]triazolo[1,5-a]azepin-7-amine 2,2,2-trifluoroacetate] | 1100 | 44.5
COc1ccc(NC2CCn3nnc(C)c3-c3ccc(C4=CCNCC4)cc32)cc1 (stereo not shown) [LC160, N-(4-methoxyphenyl)-1-methyl-9-(1,2,3,6-tetrahydropyridin-4-yl)-6,7-dihydro-5H-benzo[c][1,2,3]triazolo[1,5-a]azepin-7-amine 2,2,2-trifluoroacetate] | 2270 | 114
Cc1nnn2c1-c1ccc(-c3cnn(C)c3)cc1C(Nc1c(F)cccc1Cl)CC2 (stereo not shown) [LC185, N-(2-chloro-6-fluorophenyl)-1-methyl-9-(1-methyl-1H-pyrazol-4-yl)-6,7-dihydro-5H-benzo[c][1,2,3]triazolo[1,5-a]azepin-7-amine] | 162 | 16.4
Cc1nnn2c1-c1ccc(C3=CCN(C)CC3)cc1C(Oc1cccc(Cl)c1)CC2 (stereo not shown) [BH43, 7-(3-chlorophenoxy)-1-methyl-9-(1-methyl-1,2,3,6-tetrahydropyridin-4-yl)-6,7-dihydro-5H-benzo[c][1,2,3]triazolo[1,5-a]azepine 2,2,2-trifluoroacetate] | > 100000 | 316
Cc1nnn2c1-c1ccc(C3=CCN(C4CCCC4)CC3)cc1C(Nc1cccc(C#N)c1)CC2 (stereo not shown) [BI31, 3-((9-(1-cyclopentyl-1,2,3,6-tetrahydropyridin-4-yl)-1-methyl-6,7-dihydro-5H-benzo[c][1,2,3]triazolo[1,5-a]azepin-7-yl)amino)benzonitrile 2,2,2-trifluoroacetate] | 2290 | 151
Cc1cc(NC2CCn3nnc(C)c3-c3ccc(C4=CCNCC4)cc32)n(C)n1 (stereo not shown) [BJ28, N-(1,3-dimethyl-1H-pyrazol-5-yl)-1-methyl-9-(1,2,3,6-tetrahydropyridin-4-yl)-6,7-dihydro-5H-benzo[c][1,2,3]triazolo[1,5-a]azepin-7-amine 2,2,2-trifluoroacetate] | 1830 | 250
Cc1nnn2c1-c1ccc(-c3cnn(C)c3)cc1[C@H](Nc1ccc(Cl)cc1)CC2 [RE127, (R)—N-(4-chlorophenyl)-1-methyl-9-(1-methyl-1H-pyrazo1-4-yl)-6,7-dihydro-5H-benzo[c][1,2,3]triazolo[1,5-a]azepin-7-amine] | 4.15 ± 0.21 | < 1
CC(=O)N1CC=C(c2ccc3c(c2)C(Nc2cccc(Cl)c2F)CCn2nnc(C)c2-3)CC1 (stereo not shown) [RD180, 1-(4-(7-((3-chloro-2-fluoro-phenyl)amino)-1-methyl-6,7-dihydro-5H-benzo[c][1,2,3]triazolo[1,5-a]azepin-9-yl)-3,6-dihydropyridin-1 (2H)-yl)ethan-1-one] | 52 | 12.1
Cc1nnn2c1-c1ccc(C3=CCNCC3)cc1C(Nc1cccc3[nH]ccc13)CC2 (stereo not shown) [WA78, 2,2,2-trifluoroacetate] | 281 | 19.8
Cc1nnn2c1-c1ccc(C3=CCN(C(C)C)CC3)cc1C(Nc1ccc(F)c(Cl)c1)CC2 (stereo not shown) [BI24, N-(3-chloro-4-fluorophenyl)-9-(1-isopropyl-1,2,3,6-tetrahydropyridin-4-yl)-1-methyl-6,7-dihydro-5H-benzo[c][1,2,3]triazolo[1,5-a]azepin-7-amine 2,2,2-trifluoroacetate] | 5410 | 86.4
Cc1nnn2c1-c1ccc(C3=CCN(C4CCCCC4)CC3)cc1C(Nc1cccc(C#N)c1)CC2 (stereo not shown) [BI29, 3-((9-(1-cyclohexyl-1,2,3,6-tetrahydropyridin-4-yl)-1-methyl-6,7-dihydro-5H-benzo[c][1,2,3]triazolo[1,5-a]azepin-7-yl)amino)benzonitrile 2,2,2-trifluoroacetate] | 2660 | 168
